Patent publication US12077503B2, “Substituted cyclic amides and their use as herbicides” (FMC CORPORATION, priority 2015, dated 2024)

Columns and labels:
Test in all cases: Test C preemergence
Assay type in all cases: in vivo
soybean (Glycine max) = settings: for Plant response rating (scale of 0 to 100), Soybean: 0 is no effect, 100 is complete control
How it was run: (§1)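 Preemergence application to seeds in loam/sand soil, or foliar (postemergence) application to plants 2–18 cm tall in peat moss/vermiculite medium; surfactant-containing non-phytotoxic solvent vehicle; greenhouse. Visual injury vs controls at 13–15 d; 0 = no effect, 100 = complete control.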

[1] = test system: velvetleaf (Abutilon theophrasti); settings: for Plant response rating (scale of 0 to 100), Velvetleaf: 0 is no effect, 100 is complete control
How it was run: as §1

[2] = test system: ryegrass, Italian (Italian ryegrass, Lolium multiflorum); settings: for Plant response rating (scale of 0 to 100), Ryegrass, Italian: 0 is no effect, 100 is complete control
How it was run: as §1

[3] = test system: nutsedge, yellow (yellow nutsedge, Cyperus esculentus); settings: for Plant response rating (scale of 0 to 100), Nutsedge, Yellow: 0 is no effect, 100 is complete control
How it was run: as §1

[4] = test system: johnsongrass (Sorghum halepense); settings: for Plant response rating (scale of 0 to 100), Johnsongrass: 0 is no effect, 100 is complete control
How it was run: as §1

corn (Zea mays) = settings: for Plant response rating (scale of 0 to 100), Corn: 0 is no effect, 100 is complete control
How it was run: as §1

[5] = test system: oilseed rape (Brassica napus); settings: for Plant response rating (scale of 0 to 100), Oilseed Rape: 0 is no effect, 100 is complete control
How it was run: as §1

[6] = test system: foxtail, giant (giant foxtail, Setaria faberii); settings: for Plant response rating (scale of 0 to 100), Foxtail, Giant: 0 is no effect, 100 is complete control
How it was run: as §1

[7] = test system: blackgrass (Alopecurus myosuroides); settings: for Plant response rating (scale of 0 to 100), Blackgrass: 0 is no effect, 100 is complete control
How it was run: as §1

[8] = test system: wheat (winter wheat, Triticum aestivum); settings: for Plant response rating (scale of 0 to 100), Wheat: 0 is no effect, 100 is complete control
How it was run: as §1

[9] = test system: waterhemp (common waterhemp, Amaranthus rudis); settings: for Plant response rating (scale of 0 to 100), Waterhemp: 0 is no effect, 100 is complete control
How it was run: as §1

[10] = test system: pigweed (Amaranthus retroflexus); settings: for Plant response rating (scale of 0 to 100), Pigweed: 0 is no effect, 100 is complete control
How it was run: as §1

[11] = test system: barnyardgrass (Echinochloa crus-galli); settings: for Plant response rating (scale of 0 to 100), Barnyardgrass: 0 is no effect, 100 is complete control
How it was run: as §1

[12] = test system: crabgrass, large (large crabgrass, Digitaria sanguinalis); settings: for Plant response rating (scale of 0 to 100), Crabgrass, Large: 0 is no effect, 100 is complete control
How it was run: as §1

[13] = test system: morningglory (Ipomoea coccinea); settings: for Plant response rating (scale of 0 to 100), Morningglory: 0 is no effect, 100 is complete control
How it was run: as §1

[14] = test system: Galium (catchweed bedstraw, Galium aparine); settings: for Plant response rating (scale of 0 to 100), Galium: 0 is no effect, 100 is complete control
How it was run: as §1

[15] = 62 g ai/ha, scale 0 to 100, 0 no effect, 100 complete control

Structure (SMILES): CN1C[C@H](c2ccc(C(F)(F)F)cc2)[C@@H](C(=O)Nc2cccc(F)c2F)C1=O [Compound 623, (3S,4S)—N-(2,3-difluorophenyl)-1-methyl-2-oxo-4-[4-(trifluoromethyl)phenyl]-3-pyrrolidinecarboxamide]
- Plant response rating (scale of 0 to 100), Soybean (soybean (Glycine max); 8 g ai/ha): 0
- Plant response rating (scale of 0 to 100), Soybean (soybean (Glycine max); 16 g ai/ha): 0
- Plant response rating (scale of 0 to 100), Soybean (soybean (Glycine max); 31 g ai/ha): 0
- Plant response rating, Soybean (soybean (Glycine max); [15]): 0
- Plant response rating (scale of 0 to 100), Velvetleaf ([1]; 8 g ai/ha): 0
- Plant response rating (scale of 0 to 100), Velvetleaf ([1]; 16 g ai/ha): 0
- Plant response rating (scale of 0 to 100), Velvetleaf ([1]; 31 g ai/ha): 5
- Plant response rating, Velvetleaf [1, 15]: 60
- Plant response rating (scale of 0 to 100), Ryegrass, Italian ([2]; 8 g ai/ha): 0
- Plant response rating (scale of 0 to 100), Ryegrass, Italian ([2]; 16 g ai/ha): 20
- Plant response rating (scale of 0 to 100), Ryegrass, Italian ([2]; 31 g ai/ha): 45
- Plant response rating, Ryegrass, Italian [2, 15]: 55
- Plant response rating (scale of 0 to 100), Nutsedge, Yellow ([3]; 8 g ai/ha): 0
- Plant response rating (scale of 0 to 100), Nutsedge, Yellow ([3]; 16 g ai/ha): 0
- Plant response rating (scale of 0 to 100), Nutsedge, Yellow ([3]; 31 g ai/ha): 0
- Plant response rating, Nutsedge, Yellow [3, 15]: 0
- Plant response rating (scale of 0 to 100), Johnsongrass ([4]; 8 g ai/ha): 50
- Plant response rating (scale of 0 to 100), Johnsongrass ([4]; 16 g ai/ha): 15
- Plant response rating (scale of 0 to 100), Johnsongrass ([4]; 31 g ai/ha): 50
- Plant response rating, Johnsongrass [4, 15]: 70
- Plant response rating (scale of 0 to 100), Corn (corn (Zea mays); 8 g ai/ha): 10
- Plant response rating (scale of 0 to 100), Corn (corn (Zea mays); 16 g ai/ha): 30
- Plant response rating (scale of 0 to 100), Corn (corn (Zea mays); 31 g ai/ha): 60
- Plant response rating, Corn (corn (Zea mays); [15]): 65
- Plant response rating (scale of 0 to 100), Oilseed Rape ([5]; 8 g ai/ha): 80
- Plant response rating (scale of 0 to 100), Oilseed Rape ([5]; 16 g ai/ha): 0
- Plant response rating (scale of 0 to 100), Oilseed Rape ([5]; 31 g ai/ha): 30
- Plant response rating, Oilseed Rape [5, 15]: 85
- Plant response rating (scale of 0 to 100), Foxtail, Giant ([6]; 8 g ai/ha): 85
- Plant response rating (scale of 0 to 100), Foxtail, Giant ([6]; 16 g ai/ha): 90
- Plant response rating (scale of 0 to 100), Foxtail, Giant ([6]; 31 g ai/ha): 90
- Plant response rating, Foxtail, Giant [6, 15]: 90
- Plant response rating (scale of 0 to 100), Blackgrass ([7]; 8 g ai/ha): 0
- Plant response rating (scale of 0 to 100), Blackgrass ([7]; 16 g ai/ha): 40
- Plant response rating (scale of 0 to 100), Blackgrass ([7]; 31 g ai/ha): 60
- Plant response rating, Blackgrass [7, 15]: 90
- Plant response rating (scale of 0 to 100), Wheat ([8]; 8 g ai/ha): 20
- Plant response rating (scale of 0 to 100), Wheat ([8]; 16 g ai/ha): 0
- Plant response rating (scale of 0 to 100), Wheat ([8]; 31 g ai/ha): 40
- Plant response rating, Wheat [8, 15]: 35
- Plant response rating (scale of 0 to 100), Waterhemp ([9]; 8 g ai/ha): 45
- Plant response rating (scale of 0 to 100), Waterhemp ([9]; 16 g ai/ha): 75
- Plant response rating (scale of 0 to 100), Waterhemp ([9]; 31 g ai/ha): 85
- Plant response rating, Waterhemp [9, 15]: 90
- Plant response rating (scale of 0 to 100), Pigweed ([10]; 8 g ai/ha): 75
- Plant response rating (scale of 0 to 100), Pigweed ([10]; 16 g ai/ha): 85
- Plant response rating (scale of 0 to 100), Pigweed ([10]; 31 g ai/ha): 85
- Plant response rating, Pigweed [10, 15]: 85
- Plant response rating (scale of 0 to 100), Barnyardgrass ([11]; 8 g ai/ha): 90
- Plant response rating (scale of 0 to 100), Barnyardgrass ([11]; 16 g ai/ha): 90
- Plant response rating (scale of 0 to 100), Barnyardgrass ([11]; 31 g ai/ha): 90
- Plant response rating, Barnyardgrass [11, 15]: 95
- Plant response rating (scale of 0 to 100), Crabgrass, Large ([12]; 8 g ai/ha): 90
- Plant response rating (scale of 0 to 100), Crabgrass, Large ([12]; 16 g ai/ha): 90
- Plant response rating (scale of 0 to 100), Crabgrass, Large ([12]; 31 g ai/ha): 95
- Plant response rating, Crabgrass, Large [12, 15]: 95
- Plant response rating (scale of 0 to 100), Morningglory ([13]; 8 g ai/ha): 0
- Plant response rating (scale of 0 to 100), Morningglory ([13]; 16 g ai/ha): 0
- Plant response rating (scale of 0 to 100), Morningglory ([13]; 31 g ai/ha): 25
- Plant response rating, Morningglory [13, 15]: 15
- Plant response rating (scale of 0 to 100), Galium ([14]; 8 g ai/ha): 90
- Plant response rating (scale of 0 to 100), Galium ([14]; 16 g ai/ha): 85
- Plant response rating (scale of 0 to 100), Galium ([14]; 31 g ai/ha): 85
- Plant response rating, Galium [14, 15]: 90
